# Test results taken from article PMC2783692 (Analytical biochemistry, 2009).
# B1: cyt c2: Reduced Rhodobacter capsulatus cytochrome (cyt) c2, isolated and purified (protein, UniProt P00094 22-137, looked up)
# Cytochrome c2: GDAAKGEKEFNKCKTCHSIIAPDGTEIVKGAKTGPNLYGVVGRTAGTYPEFKYKDSIVALGASGFAWTEEDIATYVKDPGAFLKEKLDDKKAKTGMAFKLAKGGEDVAAYLASVVK
# modifications: reduced
# Experiments:
# [1] = biological target: cannabinoid (CB1) receptor; assay: PWR ligand binding to native rat trigeminal ganglion membrane fragments; conditions: Figure 4, negative spectral shifts
# chromatophore membranes = assay: PWR ligand binding to deposited chromatophore membrane fragments; set-up: species or system Rhodopseudomonas sphaeroides
# [2] = PWR ligand binding to bare sensor surface; conditions: bare sensor versus chromatophore membrane fragments
molecule,measurement,setting,value
"CCCCCCC(C)(C)c1ccc([C@@H]2C[C@H](O)CC[C@H]2CCCO)c(O)c1 [CP 55,940]",KD values compared with radioligand binding and lipid bilayer PWR studies,[1],excellent agreement
bovine serum albumin: control protein replacing cyt c2,changes in PWR spectral position (binding),"chromatophore membranes; control protein replacing cyt c2, up to 100 μM protein",did not observe any measurable changes
"Cc1c(C(=O)c2cccc3ccccc23)c2cccc3c2n1[C@H](CN1CCOCC1)CO3 [WIN 55,212–2]",KD values compared with radioligand binding and lipid bilayer PWR studies,[1],excellent agreement
B1,Kd,"chromatophore membranes; read-out: apparent binding constant (KD), PWR, reduced cyt c2, hyperbolic fit, minimum of three separate experiments",2.5 µM
same,binding weaker on bare sensor than on chromatophore fragments,[2],approximately 10 fold
